Experimental data published in US8211662B2, “Nitroreductase enzymatic substrates” (Biomerieux, priority 2007, dated 2012).

Key:
[1] = tested on: MRSA NCTC 11939; assay: Nitroreductase detection on Columbia agar, colonies read under UV; type: cell-based, Staphylococcus aureus; set-up: key: − = no fluorescence detected; +/− = weak fluorescence; + = medium fluorescence; ++ = strong fluorescence; settings: Table 3; 100 mg/l in Columbia agar, 24 h 37° C., UV 360-365 nm
Protocol: (§1) A mass of 40 mg of each substrate was dissolved in 4 ml of dimethylformamide (DMF). This solution was entirely taken up in 400 ml of Columbia agar autoclaved beforehand and kept molten at 50° C. The final concentration for each substrate was 100 mg/l.
(§2) Each of the media was distributed into Petri dishes 90 mm in diameter, in a proportion of 20 ml per dish.
(§3) 18 microorganism strains derived from collections and belonging to various species of bacteria and of yeasts were inoculated onto these media by semi-quantitative isolation of 10 μl of a suspension at 0.5 McFarland diluted to 1/20. The media were incubated for 24 hours at 37° C., then the colonies formed were examined visually under UV illumination at 360-365 nm.

[2] = tested on: Candida glabrata NCPF 3943; assay: as above; type: cell-based; set-up: key to Intensity of fluorescence, Candida glabrata NCPF3943 / F: fluorescence (intensity), Candida glabrata NCPF 3943 / Intensity of the fluorescence, Candida glabrata NCPF 3943: − = no fluorescence detected; +/− = weak fluorescence; + = medium fluorescence; ++ = strong fluorescence; settings: 100 mg/l in Columbia agar, 24 h 37° C.; for F: fluorescence (intensity), Candida glabrata NCPF 3943: Table 3, UV 360-365 nm
Protocol: as §1, §2, §3

[3] = tested on: Morganella morganii 462403 (wild); assay: as above; type: cell-based; set-up: key to Intensity of fluorescence, Morganella morganii 462403 / F: fluorescence (intensity), Morganella morganii 462403 (wild) / Intensity of the fluorescence, Morganella morganii 462403 (wild): − = no fluorescence detected; +/− = weak fluorescence; + = medium fluorescence; ++ = strong fluorescence; settings: Table 3; 100 mg/l in Columbia agar, 24 h 37° C., UV 360-365 nm
Protocol: as §1, §2, §3

[4] = tested on: Salmonella typhimurium NCTC 74; assay: as above; type: cell-based; set-up: key to Intensity of fluorescence, Salmonella typhimurium NCTC 74 / F: fluorescence (intensity), Salmonella typhimurium NCTC 74 / Intensity of the fluorescence, Salmonella typhimurium NCTC 74: − = no fluorescence detected; +/− = weak fluorescence; + = medium fluorescence; ++ = strong fluorescence; settings: Table 3; 100 mg/l in Columbia agar, 24 h 37° C., UV 360-365 nm
Protocol: as §1, §2, §3

[5] = tested on: Serratia marcescens NCTC 10211; assay: as above; type: cell-based; set-up: key: − = no fluorescence detected; +/− = weak fluorescence; + = medium fluorescence; ++ = strong fluorescence; settings: Table 3; 100 mg/l in Columbia agar, 24 h 37° C., UV 360-365 nm
Protocol: as §1, §2, §3

[6] = tested on: Citrobacter freundii 46262 (wild); assay: as above; type: cell-based; set-up: key: − = no fluorescence detected; +/− = weak fluorescence; + = medium fluorescence; ++ = strong fluorescence; settings: Table 3; 100 mg/l in Columbia agar, 24 h 37° C., UV 360-365 nm
Protocol: as §1, §2, §3

[7] = tested on: Providencia rettgeri NCTC 7475; assay: as above; type: cell-based; set-up: key: − = no fluorescence detected; +/− = weak fluorescence; + = medium fluorescence; ++ = strong fluorescence; settings: Table 3; 100 mg/l in Columbia agar, 24 h 37° C., UV 360-365 nm
Protocol: as §1, §2, §3

[8] = tested on: Burkholderia cepacia 1222; assay: as above; type: cell-based; set-up: key: − = no fluorescence detected; +/− = weak fluorescence; + = medium fluorescence; ++ = strong fluorescence; settings: Table 3; 100 mg/l in Columbia agar, 24 h 37° C., UV 360-365 nm
Protocol: as §1, §2, §3

[9] = tested on: Staphylococcus epidermidis NCTC 11047; assay: as above; type: cell-based; set-up: key: − = no fluorescence detected; +/− = weak fluorescence; + = medium fluorescence; ++ = strong fluorescence; settings: Table 3; 100 mg/l in Columbia agar, 24 h 37° C., UV 360-365 nm
Protocol: as §1, §2, §3

[10] = tested on: Enterobacter cloacae NCTC 11936; assay: as above; type: cell-based; set-up: key: − = no fluorescence detected; +/− = weak fluorescence; + = medium fluorescence; ++ = strong fluorescence; settings: Table 3; 100 mg/l in Columbia agar, 24 h 37° C., UV 360-365 nm
Protocol: as §1, §2, §3

[11] = tested on: Listeria monocytogenes NCTC 11994; assay: as above; type: cell-based; set-up: key: − = no fluorescence detected; +/− = weak fluorescence; + = medium fluorescence; ++ = strong fluorescence; settings: Table 3; 100 mg/l in Columbia agar, 24 h 37° C., UV 360-365 nm
Protocol: as §1, §2, §3

[12] = tested on: Yersinia enterocolitica NCTC 11176; assay: as above; type: cell-based; set-up: key: − = no fluorescence detected; +/− = weak fluorescence; + = medium fluorescence; ++ = strong fluorescence; settings: Table 3; 100 mg/l in Columbia agar, 24 h 37° C., UV 360-365 nm
Protocol: as §1, §2, §3

[13] = tested on: Enterococcus faecalis NCTC 775; assay: as above; type: cell-based; set-up: key: − = no fluorescence detected; +/− = weak fluorescence; + = medium fluorescence; ++ = strong fluorescence; settings: Table 3; 100 mg/l in Columbia agar, 24 h 37° C., UV 360-365 nm
Protocol: as §1, §2, §3

[14] = tested on: Bacillus subtilis NCTC 9372; assay: as above; type: cell-based; set-up: key: − = no fluorescence detected; +/− = weak fluorescence; + = medium fluorescence; ++ = strong fluorescence; settings: Table 3; 100 mg/l in Columbia agar, 24 h 37° C., UV 360-365 nm
Protocol: as §1, §2, §3

[15] = tested on: Pseudomonas aeruginosa NCTC 10662; assay: as above; type: cell-based; set-up: key: − = no fluorescence detected; +/− = weak fluorescence; + = medium fluorescence; ++ = strong fluorescence; settings: Table 3; 100 mg/l in Columbia agar, 24 h 37° C., UV 360-365 nm
Protocol: as §1, §2, §3

[16] = tested on: Streptococcus pyogenes NCTC 8306; assay: as above; type: cell-based; set-up: key: − = no fluorescence detected; +/− = weak fluorescence; + = medium fluorescence; ++ = strong fluorescence; settings: Table 3; 100 mg/l in Columbia agar, 24 h 37° C., UV 360-365 nm
Protocol: as §1, §2, §3

[17] = tested on: Enterococcus faecium NCTC 7171; assay: as above; type: cell-based; set-up: key: − = no fluorescence detected; +/− = weak fluorescence; + = medium fluorescence; ++ = strong fluorescence; settings: Table 3; 100 mg/l in Columbia agar, 24 h 37° C., UV 360-365 nm
Protocol: as §1, §2, §3

[18] = tested on: Staphylococcus aureus NCTC 6571; assay: as above; type: cell-based; set-up: key: − = no fluorescence detected; +/− = weak fluorescence; + = medium fluorescence; ++ = strong fluorescence; settings: Table 3; 100 mg/l in Columbia agar, 24 h 37° C., UV 360-365 nm
Protocol: as §1, §2, §3

[19] = tested on: Candida albicans ATCC 90028; assay: as above; type: cell-based; set-up: key: − = no fluorescence detected; +/− = weak fluorescence; + = medium fluorescence; ++ = strong fluorescence; settings: Table 3; 100 mg/l in Columbia agar, 24 h 37° C., UV 360-365 nm
Protocol: as §1, §2, §3

[20] = tested on: Escherichia coli NCTC 10418; assay: as above; type: cell-based; set-up: key: − = no fluorescence detected; +/− = weak fluorescence; + = medium fluorescence; ++ = strong fluorescence; settings: Table 3; 100 mg/l in Columbia agar, 24 h 37° C., UV 360-365 nm
Protocol: as §1, §2, §3

SMILES | F: fluorescence (intensity), MRSA NCTC 11939 [1] | F: fluorescence (intensity), Candida glabrata NCPF 3943 [2] | F: fluorescence (intensity), Morganella morganii 462403 (wild) [3] | F: fluorescence (intensity), Salmonella typhimurium NCTC 74 [4] | F: fluorescence (intensity), Serratia marcescens NCTC 10211 [5] | F: fluorescence (intensity), Citrobacter freundii 46262 (wild) [6] | F: fluorescence (intensity), Providencia rettgeri NCTC 7475 [7] | F: fluorescence (intensity), Burkholderia cepacia 1222 [8] | F: fluorescence (intensity), Staphylococcus epidermidis NCTC 11047 [9] | F: fluorescence (intensity), Enterobacter cloacae NCTC 11936 [10] | F: fluorescence (intensity), Listeria monocyto genes NCTC 11994 [11] | F: fluorescence (intensity), Yersinia enterocolitica NCTC 11176 [12] | F: fluorescence (intensity), Enterococcus faecails NCTC 775 [13] | F: fluorescence (intensity), Bacillus subtilis NCTC 9372 [14] | F: fluorescence (intensity), Pseudomonas aeruginosa NCTC 10662 [15] | F: fluorescence (intensity), Streptococcus pyogenes NCTC 8306 [16] | F: fluorescence (intensity), Enterococcus faecium NCTC 7171 [17] | F: fluorescence (intensity), Staphylococcus aureus NCTC 6571 [18] | F: fluorescence (intensity), Candida albicans ATCC 90028 [19] | F: fluorescence (intensity), Escherichia coli NCTC 10418 [20] | also measured
O=[N+]([O-])c1ccccc1-c1nc2ccccc2o1 [Substrate 1] | ++ | − | ++ | ++ | ++ | ++ | ++ | ++ | + | ++ | ++ | ++ | ++ | − | ++ | + | + | ++ | − | ++ | G: growth, Candida glabrata NCPF 3943 [2]: No G
O=[N+]([O-])c1cc2c(cc1-c1nc3ccccc3o1)OCO2 [Substrate 5] | ++ | − | ++ | ++ | ++ | ++ | + | + | − | ++ | + | − | − | − | + | − | − | ++ | − | ++ | 
O=[N+]([O-])c1ccc(Cl)cc1-c1nc2ccccc2o1 [Substrate 4, 2-(2′-Nitro-5′-chlorophenyl)benzoxazole] |  |  |  |  |  |  |  |  |  |  |  |  |  |  |  |  |  |  |  |  | melting point: 130 to 132 °C
